Test system: patients with uterine fibroids and adenomyosis or endometriosis
Test: Clinical study: 5 mg or 10 mg ulipristal on pain in patients with adenomyosis or endometriosis (Example 2)
Assay type: in vivo, human
Parameters: key to PBAC score at the end of treatment (week 13): PBAC score; normal <75, >100 menorrhagia; higher is worse; key to A(SF-MPQ) Score: SF-MPQ Part A pain score; lower score is better; key to B(VAS) Score / B(VAS) CFB: SF-MPQ Part B VAS pain score; lower score is better
Protocol: Different parameters were assessed before treatment (Baseline) and after the end of treatment (13 weeks): • The PBAC score (Pictorial Blood Loss Assessment Chart) gives an estimation of the menstrual blood loss. This score was measured before treatment and continuing up to week 13 of treatment. Normal menstrual bleeding score is <75. Abnormal bleeding (menorrhagia) is characterized by a PBAC score >100. Higher the score, worse is the bleeding. • The Uterine volume was estimated before treatment (Baseline Uterine volume) and the % change in uterine volume was reported at the end of the treatment (week 13). • The SF-M P QPart A (short form of the Mc Gill Pain questionnaire) was used as a measure of the sensory, affective and intensity dimensions of pain. The pain was estimated before treatment and the change was reported at the end of the treatment (week 13). (NOTE: The lowest is the score, the better it is). • The SF-MPQ Part B (short form of the Mc Gill Pain questionnaire) wherein the pain is assessed with a visual analogue scale (VAS) before treatment and the change was reported at the end of the treatment (week 13). (NOTE: The lowest is the score, the better it is). • Discomfort questionnaire (disease specific quality of life questionnaire) estimating the quality of life before treatment and the change was reported at the end of the treatment (week 13). (NOTE: The lowest is the score, the better it is). • The level of Hb (Hemoglobin) was measured before treatment and at the end of the treatment. (NOTE: the higher it is, the better it is.) 3. Results
A double-blinded, randomized, study evaluating the effect of long term oral administration of 5 mg or 10 mg ulipristal in patients with heavy menstrual bleeding and pain.
The control group consisted of patients treated with GnRH agonist.
These patients included women 36 years of age or older with evidence of uterine fibroids and adenomyosis or endometriosis diagnosed by ultrasound.
Patient 210/5252 (candidate having adenomyosis) received a daily dose of 5 mg ulipristal (Esmya®) for 13 weeks and was followed up to week 38. A myomectomy by laparotomy was conducted after Week 13 visit.
Patient 281/5214 (candidate having endometriosis) received a daily dose of 5 mg ulipristal (Esmya®) for 13 weeks and was followed up to week 38.
Patient 210/5095 (candidate having adenomyosis) received a daily dose of 10 mg ulipristal (Esmya®) for 13 weeks and was followed up to week 38. A hysterectomy by laparoscopy was conducted after Week 13 visit.
Patient 210/5308 (candidate having endometriosis) received a daily dose of 10 mg ulipristal (Esmya®) for 13 weeks and was followed up to week 38. A myomectomy by hysteroscopy was conducted after Week 13 visit.
A myomectomy by laparoscopy and hysteroscopy was conducted between Week 26 & 38 visits.
Patient 250/5090 (candidate having endometrioma) received a daily dose of 10 mg ulipristal (Esmya®) for 13 weeks and was followed up to week 38.

[1] = 5 mg/day 13 weeks, patient 210/5252, adenomyosis, Week 5
[2] = 5 mg/day 13 weeks, patient 210/5252, adenomyosis, Week 13
[3] = 5 mg/day 13 weeks, patient 210/5252, adenomyosis, Week 26 follow-up, myomectomy by laparotomy after Week 13
[4] = 5 mg/day 13 weeks, patient 210/5252, adenomyosis, Week 38 follow-up, myomectomy by laparotomy after Week 13
[5] = 5 mg/day 13 weeks, patient 210/5252, adenomyosis, week 9
[6] = 5 mg/day 13 weeks, patient 281/5214, endometriosis, Week 5
[7] = 5 mg/day 13 weeks, patient 281/5214, endometriosis, Week 13
[8] = 5 mg/day 13 weeks, patient 281/5214, endometriosis, Week 17 follow-up, no surgery
[9] = 5 mg/day 13 weeks, patient 281/5214, endometriosis, Week 26 follow-up, no surgery
[10] = 5 mg/day 13 weeks, patient 281/5214, endometriosis, Week 38 follow-up, no surgery
[11] = 5 mg/day 13 weeks, patient 281/5214, endometriosis, week 9
[12] = 10 mg/day 13 weeks, patient 210/5095, adenomyosis, Week 5
[13] = 10 mg/day 13 weeks, patient 210/5095, adenomyosis, Week 13
[14] = 10 mg/day 13 weeks, patient 210/5095, adenomyosis, Week 17 follow-up, hysterectomy by laparoscopy after Week 13
[15] = 10 mg/day 13 weeks, patient 210/5095, adenomyosis, Week 26 follow-up, hysterectomy by laparoscopy after Week 13
[16] = 10 mg/day 13 weeks, patient 210/5095, adenomyosis, Week 38 follow-up, hysterectomy by laparoscopy after Week 13
[17] = 10 mg/day 13 weeks, patient 210/5095, adenomyosis, week 9
[18] = patient 210/5095, 10 mg, adenomyosis and uterine fibroids

## CC(=O)O[C@]1(C(C)=O)CC[C@H]2[C@@H]3CCC4=CC(=O)CCC4=C3[C@@H](c3ccc(N(C)C)cc3)C[C@@]21C [Ulipristal, 17α-acetoxy-11β-[4-N,N-dimethylamino-phenyl)-19-norpregna-4,9-diene-3,20-dione]
[1]
  A(SF-MPQ) CFB: −2
  A(SF-MPQ) Score: 14
  B(VAS) CFB: 21
  B(VAS) Score: 64
  PBAC CFB: 150
  PBAC Score: 375
[2]
  % Change in Uterine Volume: 6.6%
  A(SF-MPQ) CFB: −3
  A(SF-MPQ) Score: 9
  B(VAS) CFB: −6
  B(VAS) Score: 37
  PBAC CFB: −101
  PBAC Score: 124
  Uterine Volume: 251.7 cm3
[3]
  A(SF-MPQ) CFB: −4
  A(SF-MPQ) Score: 8
  B(VAS) CFB: 24
  B(VAS) Score: 67
  PBAC CFB: 530
  PBAC Score: 755
[4]
  A(SF-MPQ) CFB: −3
  A(SF-MPQ) Score: 9
  B(VAS) CFB: 27
  B(VAS) Score: 70
  PBAC CFB: 46
  PBAC Score: 271
[5]
  A(SF-MPQ) CFB: −1
  A(SF-MPQ) Score: 11
  B(VAS) CFB: 14
  B(VAS) Score: 57
  PBAC CFB: 58
  PBAC Score: 283
[6]
  A(SF-MPQ) CFB: −3
  A(SF-MPQ) Score: 1
  B(VAS) CFB: −17
  B(VAS) Score: 3
  PBAC CFB: −174
  PBAC Score: 46
[7]
  % Change in Uterine Volume: 21.3%
  A(SF-MPQ) CFB: −4
  A(SF-MPQ) Score: 0
  B(VAS) CFB: −20
  B(VAS) Score: 0
  PBAC CFB: −220
  PBAC Score: 0
  Uterine Volume: 159.1 cm3
[8]
  % Change in Uterine Volume: 12.6%
  Uterine Volume: 147.7 cm3
[9]
  % Change in Uterine Volume: −21.2%
  B(VAS) CFB: 53
  B(VAS) Score: 73
  PBAC CFB: −168
  PBAC Score: 52
  Uterine Volume: 102.2 cm3
[10]
  % Change in Uterine Volume: −24.6%
  A(SF-MPQ) CFB: −4
  A(SF-MPQ) Score: 0
  B(VAS) CFB: −20
  B(VAS) Score: 0
  PBAC CFB: 351
  PBAC Score: 571
  Uterine Volume: 98.9 cm3
[11]
  A(SF-MPQ) CFB: −4
  A(SF-MPQ) Score: 0
  B(VAS) CFB: −20
  B(VAS) Score: 0
  PBAC CFB: −220
  PBAC Score: 0
[12]
  A(SF-MPQ) CFB: 14
  A(SF-MPQ) Score: 0
  B(VAS) CFB: −88
  B(VAS) Score: 0
  PBAC CFB: −532
  PBAC Score: 328
[13]
  % Change in Uterine Volume: −33.8%
  A(SF-MPQ) CFB: −14
  A(SF-MPQ) Score: 0
  B(VAS) CFB: −88
  B(VAS) Score: 0
  PBAC CFB: −860
  PBAC Score: 0
  Uterine Volume: 284.7 cm3
[14]
  A(SF-MPQ) CFB: −14
  A(SF-MPQ) Score: 0
[15]
  A(SF-MPQ) CFB: −14
  A(SF-MPQ) Score: 0
  B(VAS) CFB: −88
  B(VAS) Score: 0
  PBAC Score: 0
[16]
  A(SF-MPQ) CFB: −14
  A(SF-MPQ) Score: 0
  B(VAS) CFB: −88
  B(VAS) Score: 0
[17]
  A(SF-MPQ) CFB: 14
  A(SF-MPQ) Score: 0
  B(VAS) CFB: −88
  B(VAS) Score: 0
  PBAC CFB: −860
  PBAC Score: 0
3 of 4 patients (210/5095, 210/5308, 250/5090), 10 mg
  uterine volume at week 13 compared to baseline: decrease in uterine volume
[18]
  bleeding starting from week 9: did not bleed anymore
  pain starting from 5th week: no pain anymore
Patient 210/5308, 10 mg/day 13 weeks, endometriosis
  PBAC value at week 13: 55
Patients 281/5214, 210/5095, 210/5308, 250/5090, 5 mg or 10 mg
  pain at week 5, 9, 13 compared to baseline: improvement in pain
Patients 281/5214, 210/5095, 250/5090, 5 mg or 10 mg
  PBAC score at the end of treatment (week 13): 0
